{"source": "patent US20250243176A1", "about": "“(S)-1-(1-ACRYLOYLPIPERIDIN-3-YL)-2-FLUORO-5,6,7,8,9,10-HEXAHYDROCYCLO HEPTA[B]INDOLE-4-CARBOXAMIDE, AND RELATED CRYSTALLINE FORMS, COMPOSITIONS, AND METHODS THEREOF” (GB005, Inc., priority 2021, published 2025)", "key": {"[1]": {"experiment": "Phase 1 multiple ascending dose plasma pharmacokinetics", "type": "in vivo", "conditions": "both sexes, human, oral, MAD cohort, 15 mg once daily for 10 days, fed"}, "[2]": {"experiment": "Phase 1 single ascending dose plasma pharmacokinetics", "type": "in vivo, human", "conditions": "for AUC(0-inf) / Cmax / half-life / Tmax: both sexes, human, plasma, fed; for AUC(0-inf) / Cmax: mean; for dose proportionality of exposure (AUCinf): single dose", "procedure": "The study investigates the administration of Compound 1 to healthy human subjects, to evaluate the safety, tolerability and PK of single and multiple-escalating doses. Additional objectives include assessing the effect of formulation on PK, the effect of food on PK, the effect of a CYP3A inhibitor on PK and the effect of Compound 1 on CYP3A activity. PK parameters including AUC, AUC, Cmax, and Tmax are determined. An additional exploratory objective evaluates pharmacodynamics, as the time-course of BTK inhibition. The study is conducted with up to 144 healthy male and female subjects, aged 18-55 years, with a body weight over 48 kg, BMI 18.5-30.0 kg/m^2, with no clinically significant abnormalities.\nPart A is a randomized, double-blind, placebo-controlled, single- and -multiple-dose study with staggered dose escalation, administered in the fed state (standard moderate-fat meal). Part A consists of […] (up to 7 single-ascending dose [SAD] cohorts [Cohorts 1-6 & 14], and up to 3 multiple ascending dose [MAD] cohorts [Cohorts 7-9]). Subjects are randomized in a 3:1 ratio per cohort to receive either: Compound 1 Formulation A (N=6 for Cohorts 1-4 and N=9 for Cohorts 5-9 & 14); or placebo (PBO; N=2 for Cohorts 1-4 and N=3 for Cohorts 5-9 & 14).\n• Cohorts 1-4: Day 1, all subjects receive a single dose of Formulation A Compound 1 or placebo. • Cohorts 5, 6 & 14: Day −1, all subjects receive placebo (establish baseline ECG assessments). Day 1, subjects receive a single oral dose of Compound 1 or placebo.\nSafety is assessed throughout the study and PK and PD are characterized using serial blood samples collected up to 48 hours post-dose for Compound 1 plasma concentrations, BTK target occupancy (TO) and target engagement (TE). Cerebrospinal fluid (CSF) samples are collected at 2 hours post-dose to characterize the relationship between Compound 1 plasma concentrations and CNS penetrance (CSF/Unbound plasma concentration). Compound 1 PK parameters (e.g., AUClast, AUCinf, Cmax, Tmax, t1/2) are estimated by standard noncompartmental methods.\nResults: Preliminary pharmacokinetic results from […] are presented, including […] (7 receiving 5 mg, 8 receiving 15 mg, 8 receiving 45 mg, 8 receiving 5 mg+10 mg placebo, 12 receiving 100 mg and 12 receiving 200 mg: randomized in a 3:1 ratio to receive Compound 1 or placebo) in a fed state (moderate-fat meal). […] Preliminary PK parameters are presented in Table 45 (all pharmacokinetic parameters of Table 45 are reported as Mean (% coefficient of variation), except for Tmax and t/2, which are reported as Median (Min, Max)), and in FIG. 25 presenting the mean (SD) plasma concentration-time profiles of Compound 1."}, "[3]": {"experiment": "Stability testing of formulations and Compound 1 alone (impurities, HPLC)", "type": "physicochemical", "conditions": "40° C.", "procedure": "Both gels were prepared using Titanium Dioxide, Iron Oxide, Red and FD&C Blue #1 as colorants. One dried swatch of gel 004007 was added to the gel 1 samples and one dried swatch of 004013 was added to gel 2.\nThe samples were stored in 6 mL amber glass vials at: room temperature, 40° C., 50° C. and 5° C. for up 8 weeks. Control samples (Compound 1 alone) were analyzed in parallel with the study samples and control peaks were subtracted from the total impurities."}, "TXK": {"target": "T1, TXK (Homo sapiens, UniProt P42681)", "T1 sequence (P42681 1-527)": "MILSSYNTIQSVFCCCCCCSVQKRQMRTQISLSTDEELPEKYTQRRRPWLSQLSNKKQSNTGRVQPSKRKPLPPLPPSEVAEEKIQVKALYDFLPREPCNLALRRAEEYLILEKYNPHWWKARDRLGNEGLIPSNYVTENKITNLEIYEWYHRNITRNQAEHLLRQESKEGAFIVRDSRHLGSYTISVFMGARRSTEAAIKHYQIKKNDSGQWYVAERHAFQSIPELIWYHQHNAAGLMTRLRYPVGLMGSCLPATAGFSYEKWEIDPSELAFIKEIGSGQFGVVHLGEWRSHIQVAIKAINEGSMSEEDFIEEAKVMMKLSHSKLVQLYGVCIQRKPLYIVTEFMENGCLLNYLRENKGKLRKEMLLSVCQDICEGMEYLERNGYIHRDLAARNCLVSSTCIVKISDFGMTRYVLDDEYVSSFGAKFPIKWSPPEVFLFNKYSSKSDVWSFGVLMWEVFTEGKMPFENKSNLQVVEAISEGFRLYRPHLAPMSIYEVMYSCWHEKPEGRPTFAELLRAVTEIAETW", "experiment": "Kinome scan, TXK", "type": "biochemical", "from_the_text": "(S)-1-(1-acryloylpiperidin-3-yl)-2-fluoro-5,6,7,8,9,10-hexahydrocyclohepta[b]indole-4-carboxamide, hereinafter referred to as “Compound 1”, is an orally available, selective, potent inhibitor of Bruton's tyrosine kinase (BTK), thereby providing potential treatment options in BTK-driven diseases. The potency of Compound 1 for BTK inhibition is in the nM range in both cell-free enzymatic and whole blood functional assays."}, "[4]": {"conditions": "oral, 5 mg, Cohort 1, 5 mg single dose"}, "[5]": {"conditions": "oral, 5 mg, Cohort 4, 5 mg (+10 PBO) single dose"}, "[6]": {"conditions": "oral, 15 mg, Cohort 2, 15 mg single dose"}, "[7]": {"conditions": "oral, 45 mg, Cohort 3, 45 mg single dose"}, "[8]": {"conditions": "oral, 100 mg, Cohort 5, 100 mg single dose"}, "[9]": {"conditions": "oral, 200 mg, Cohort 6, 200 mg single dose"}}, "note": "Like-named read-outs stand apart in the source and are kept apart here.", "data": [{"smiles": "C=CC(=O)N1CCC[C@@H](c2c(F)cc(C(N)=O)c3[nH]c4c(c23)CCCCC4)C1", "note": "[Compound 1, (S)-1-(1-acryloylpiperidin-3-yl)-2-fluoro-5,6,7,8,9,10-hexahydrocyclohepta[b]indole-4-carboxamide]", "values": [{"measurement": "Tmax", "setting": "[1]", "value": 1.5, "unit": "h"}, {"measurement": "AUC(0-inf)", "setting": "[2]; [4]", "value": 62.1, "unit": "ng·h/mL"}, {"measurement": "Cmax", "setting": "[2]; [4]", "value": 22.5, "unit": "ng/mL"}, {"measurement": "half-life", "setting": "[2]; oral, 5 mg, Cohort 1, 5 mg single dose, median, read-out: T1/2 (converted)", "value": 2.77, "unit": "h"}, {"measurement": "Tmax", "setting": "[2]; oral, 5 mg, Cohort 1, 5 mg single dose, median, read-out: Tmax", "value": 2, "unit": "h"}, {"measurement": "AUC(0-inf)", "setting": "[2]; [5]", "value": 121, "unit": "ng·h/mL"}, {"measurement": "Cmax", "setting": "[2]; [5]", "value": 36, "unit": "ng/mL"}, {"measurement": "half-life", "setting": "[2]; oral, 5 mg, Cohort 4, 5 mg (+10 PBO) single dose, median, read-out: T1/2 (converted)", "value": 3.33, "unit": "h"}, {"measurement": "Tmax", "setting": "[2]; oral, 5 mg, Cohort 4, 5 mg (+10 PBO) single dose, median, read-out: Tmax", "value": 1.75, "unit": "h"}, {"measurement": "AUC(0-inf)", "setting": "[2]; [6]", "value": 339, "unit": "ng·h/mL"}, {"measurement": "Cmax", "setting": "[2]; [6]", "value": 124, "unit": "ng/mL"}, {"measurement": "half-life", "setting": "[2]; oral, 15 mg, Cohort 2, 15 mg single dose, median, read-out: T1/2 (converted)", "value": 3.6, "unit": "h"}, {"measurement": "Tmax", "setting": "[2]; oral, 15 mg, Cohort 2, 15 mg single dose, median, read-out: Tmax", "value": 1, "unit": "h"}, {"measurement": "AUC(0-inf)", "setting": "[2]; [7]", "value": 859, "unit": "ng·h/mL"}, {"measurement": "Cmax", "setting": "[2]; [7]", "value": 283, "unit": "ng/mL"}, {"measurement": "half-life", "setting": "[2]; oral, 45 mg, Cohort 3, 45 mg single dose, median, read-out: T1/2 (converted)", "value": 3.4, "unit": "h"}, {"measurement": "Tmax", "setting": "[2]; oral, 45 mg, Cohort 3, 45 mg single dose, median, read-out: Tmax", "value": 1.5, "unit": "h"}, {"measurement": "AUC(0-inf)", "setting": "[2]; [8]", "value": 2290, "unit": "ng·h/mL"}, {"measurement": "Cmax", "setting": "[2]; [8]", "value": 555, "unit": "ng/mL"}, {"measurement": "half-life", "setting": "[2]; oral, 100 mg, Cohort 5, 100 mg single dose, median, read-out: T1/2 (converted)", "value": 4.29, "unit": "h"}, {"measurement": "Tmax", "setting": "[2]; oral, 100 mg, Cohort 5, 100 mg single dose, median, read-out: Tmax", "value": 1.5, "unit": "h"}, {"measurement": "AUC(0-inf)", "setting": "[2]; [9]", "value": 4480, "unit": "ng·h/mL"}, {"measurement": "Cmax", "setting": "[2]; [9]", "value": 814, "unit": "ng/mL"}, {"measurement": "half-life", "setting": "[2]; oral, 200 mg, Cohort 6, 200 mg single dose, median, read-out: T1/2 (converted)", "value": 4.5, "unit": "h"}, {"measurement": "Tmax", "setting": "[2]; oral, 200 mg, Cohort 6, 200 mg single dose, median, read-out: Tmax", "value": 3, "unit": "h"}, {"measurement": "Tmax", "setting": "[2]; po, healthy subjects, single oral dose, SAD cohorts, read-out: mean plasma Tmax", "value": "1 to 3", "unit": "h"}, {"measurement": "half-life", "setting": "[2]; po, healthy subjects, single oral dose, SAD cohorts, read-out: terminal half-life", "value": "3 to 4", "unit": "h"}, {"measurement": "dose proportionality of exposure (AUCinf)", "setting": "[2]; from 5 to 15 mg", "value": "greater than dose-proportional"}, {"measurement": "dose proportionality of exposure (AUCinf)", "setting": "[2]; from 15 to 200 mg", "value": "near dose-proportional"}, {"measurement": "Compound 1 Related Impurities, RRT 0.73", "setting": "[3]; T = 0", "value": 0.05, "unit": "% adjusted area"}, {"measurement": "Compound 1 Related Impurities, RRT 0.79", "setting": "[3]; T = 0", "value": "<LOQ"}, {"measurement": "Compound 1 Related Impurities, RRT 0.84", "setting": "[3]; T = 0", "value": 0.07, "unit": "% adjusted area"}, {"measurement": "Compound 1 Related Impurities, RRT 0.91", "setting": "[3]; T = 0", "value": 0.10, "unit": "% adjusted area"}, {"measurement": "Compound 1 Related Impurities, RRT 0.93", "setting": "[3]; T = 0", "value": 0.06, "unit": "% adjusted area"}, {"measurement": "Compound 1 Related Impurities, RRT 1.08", "setting": "[3]; T = 0", "value": 0.07, "unit": "% adjusted area"}, {"measurement": "Compound 1 Related Impurities, RRT 1.13", "setting": "[3]; T = 0", "value": 0.36, "unit": "% adjusted area"}, {"measurement": "Compound 1 Related Impurities, Total", "setting": "[3]; T = 0", "value": 0.71, "unit": "% adjusted area"}, {"measurement": "Compound 1 Related Impurities, RRT 0.73", "setting": "[3]; T = 3 weeks", "value": 0.06, "unit": "% adjusted area"}, {"measurement": "Compound 1 Related Impurities, RRT 0.79", "setting": "[3]; T = 3 weeks", "value": "<LOQ"}, {"measurement": "Compound 1 Related Impurities, RRT 0.84", "setting": "[3]; T = 3 weeks", "value": 0.05, "unit": "% adjusted area"}, {"measurement": "Compound 1 Related Impurities, RRT 0.91", "setting": "[3]; T = 3 weeks", "value": 0.07, "unit": "% adjusted area"}, {"measurement": "Compound 1 Related Impurities, RRT 0.93", "setting": "[3]; T = 3 weeks", "value": 0.07, "unit": "% adjusted area"}, {"measurement": "Compound 1 Related Impurities, RRT 1.08", "setting": "[3]; T = 3 weeks", "value": 0.07, "unit": "% adjusted area"}, {"measurement": "Compound 1 Related Impurities, RRT 1.13", "setting": "[3]; T = 3 weeks", "value": 0.30, "unit": "% adjusted area"}, {"measurement": "Compound 1 Related Impurities, Total", "setting": "[3]; T = 3 weeks", "value": 0.62, "unit": "% adjusted area"}, {"measurement": "Compound 1 Related Impurities, RRT 0.47", "setting": "[3]; T = 8 weeks", "value": 0.07, "unit": "% adjusted area"}, {"measurement": "Compound 1 Related Impurities, RRT 0.73", "setting": "[3]; T = 8 weeks", "value": 0.05, "unit": "% adjusted area"}, {"measurement": "Compound 1 Related Impurities, RRT 0.79", "setting": "[3]; T = 8 weeks", "value": "<LOQ"}, {"measurement": "Compound 1 Related Impurities, RRT 0.84", "setting": "[3]; T = 8 weeks", "value": 0.06, "unit": "% adjusted area"}, {"measurement": "Compound 1 Related Impurities, RRT 0.91", "setting": "[3]; T = 8 weeks", "value": 0.08, "unit": "% adjusted area"}, {"measurement": "Compound 1 Related Impurities, RRT 0.93", "setting": "[3]; T = 8 weeks", "value": 0.05, "unit": "% adjusted area"}, {"measurement": "Compound 1 Related Impurities, RRT 1.04", "setting": "[3]; T = 8 weeks", "value": 0.12, "unit": "% adjusted area"}, {"measurement": "Compound 1 Related Impurities, RRT 1.08", "setting": "[3]; T = 8 weeks", "value": 0.06, "unit": "% adjusted area"}, {"measurement": "Compound 1 Related Impurities, RRT 1.13", "setting": "[3]; T = 8 weeks", "value": 0.32, "unit": "% adjusted area"}, {"measurement": "Compound 1 Related Impurities, Total", "setting": "[3]; T = 8 weeks", "value": 0.81, "unit": "% adjusted area"}, {"measurement": "inhibition at 1 µM", "setting": "TXK", "value": "> 50", "unit": "%"}]}]}
